From patent US20190137505A1 (THE ARIZONA BOARD OF REGENTS ON BEHALF OF THE UNIVERSITY OF …, priority 2015, published 2019) come the findings set out here.

The target in the assay is T1, plasminogen (Pg) (Homo sapiens, UniProt P00747).
T1 construct: Glu-Pg, uPA, tPA, fibrinogen, and chromogenic substrate for Pn were purchased from Molecular Innovations (Novi, Mich.); purchased Molecular Innovations (Novi, Mich.)
Nature of the assay: Chromogenic activity assay: activation of unmodified and MG-modified Pg to plasmin by tPA, uPA or STK on a fibrin matrix. The following applies: p<0.05. It is filed as biochemical. As to the method:
10 μg Pg was incubated with MG (50-500 μM) in tris-buffered saline (TBS) for 24 hours at 37° C. Following modification, sample volumes were increased to 150 μL and placed in 5 kDa spin filters to reduce volume and remove excess MG from solution.
96-well plate was incubated with 200 μL of 260 nM fibrinogen in TBS for 40 min at room temperature. Fibrinogen solution was removed and replaced with 250 μL TBS containing 3% bovine serum albumin and 0.01% TWEEN for 90 minutes at 37° C. Blocking solution was removed and the plate was washed twice with solution of 50 mM Tris-HCl, 110 mM NaCl and 0.01% TWEEN (pH 7.4). 5 units/mL of thrombin and 5 mM CaCl2 in 50 mM Tris-HCl, 110 mM NaCl (pH 7.4) was added to the wells for 45 min. A high salt wash (1 M NaCl, 50 mM Tris-HCl, pH 7.4) followed by a TBS-TWEEN wash completed plate prep.
Into each well 198 μL of 10 mM HEPES/150 mM NaCl (pH 7.4) was added. Into each well, 2 μL of 25 mM chromogenic substrate for Pn (D-VLK-pNA) was added. To appropriate wells were added 2 μL of 20 μM Pg, either a 24-hour unmodified control or 24 hour 50-500 μM MG modified. Activators were added to respective wells to test activation of unmodified and modified Pg. 2 μL of each activator enzyme was utilized in appropriate wells for tPA (1.2 μM), uPA (5 μM) and STK (500 nM). Following enzyme addition, plate was immediately read on a SpectraMax M2 plate reader (Molecular Devices) every minute for 90 minutes at an absorbance of 405 nm.
Pg (10 μg) was incubated with MG (50-500 μM) in 10 mM HEPES/150 mM NaCl (pH 7.4) for 24 hours at 37° C. Following modification, sample volumes were increased to 150 μL and placed in 5 kDa spin filters to reduce volume and remove excess MG from solution. A 96-well plate was incubated with 200 μL of 260 nM fibrinogen in TBS for 40 min. at room temperature. Fibrinogen solution was removed and replaced with 250 μL TBS containing 3% bovine serum albumin and 0.01% TWEEN for 90 minutes at 37° C. Blocking solution was removed and the plate was washed twice with solution of 50 mM Tris-HCl, 110 mM NaCl and 0.01% TWEEN (pH 7.4). Thrombin (5 units/mL) and 5 mM CaCl2 in 50 mM Tris-HCl, 110 mM NaCl (pH 7.4) was added to the wells for 45 min. A high salt wash (1M NaCl, 50 mM Tris-HCl, pH 7.4) followed by a TBS-TWEEN wash completed plate prep. Into each well, 198 μL of 10 mM HEPES/150 mM NaCl (pH 7.4) and 2 μL of 25 mM chromogenic substrate for Pn (D-VLK-pNA) were added. To appropriate wells were added 2 μL of 20 μM Pg, either a 24-hour unmodified control or 24 hour 50-500 μM MG modified. Activators were added to respective wells to test activation of unmodified and modified Pg. Each activator enzyme (2 μL) was utilized in appropriate wells for tPA (12 nM), uPA (50 nM) and STK (5 nM) (Ajjan et al., 2013, Zhang et al., 2012). Following enzyme addition, plate was immediately read on a SpectraMax M2 plate reader (Molecular Devices) every minute for 90 minutes at an absorbance of 405 nm.

T1 sequence (P00747 20-810 limits assumed): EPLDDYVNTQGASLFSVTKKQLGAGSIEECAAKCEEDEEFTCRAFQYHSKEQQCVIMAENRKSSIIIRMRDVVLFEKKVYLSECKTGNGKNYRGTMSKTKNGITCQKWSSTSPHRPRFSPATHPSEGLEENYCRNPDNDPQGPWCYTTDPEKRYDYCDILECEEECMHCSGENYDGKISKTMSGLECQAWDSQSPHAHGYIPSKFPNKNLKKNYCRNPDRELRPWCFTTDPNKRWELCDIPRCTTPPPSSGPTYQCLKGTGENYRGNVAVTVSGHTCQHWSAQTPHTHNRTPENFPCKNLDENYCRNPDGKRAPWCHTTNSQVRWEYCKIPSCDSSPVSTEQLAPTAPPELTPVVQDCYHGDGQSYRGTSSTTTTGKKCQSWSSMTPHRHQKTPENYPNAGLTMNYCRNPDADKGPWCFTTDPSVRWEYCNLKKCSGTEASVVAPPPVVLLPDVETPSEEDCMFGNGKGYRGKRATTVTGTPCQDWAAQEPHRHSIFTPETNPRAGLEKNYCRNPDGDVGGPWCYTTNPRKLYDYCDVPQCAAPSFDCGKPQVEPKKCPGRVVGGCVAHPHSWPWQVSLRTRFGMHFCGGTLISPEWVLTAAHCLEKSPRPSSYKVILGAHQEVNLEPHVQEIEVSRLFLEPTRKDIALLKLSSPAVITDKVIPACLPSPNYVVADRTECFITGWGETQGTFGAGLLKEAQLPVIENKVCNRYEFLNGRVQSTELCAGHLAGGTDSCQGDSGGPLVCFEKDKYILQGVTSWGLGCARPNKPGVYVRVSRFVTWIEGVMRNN

On to `CC(=O)C=O` [MG, Methylglyoxal], for which the “time at which significant delay in activation of MG-modified Pg is detectable” value came out at 16 min (STK 5 nM, Pg modified 24 hours with 100 μM MG); 12 min (STK 5 nM, Pg modified 24 hours with 500 μM MG); 30 min (tPA 12 nM, Pg modified 24 hours with 100 μM MG); 28 min (tPA 12 nM, Pg modified 24 hours with 500 μM MG); 37 min (uPA 50 nM, Pg modified 24 hours with 500 μM MG).
